# In patent US20190091162A1, “POLYMER-LIPID HYBRID NANOPARTICLES OF CAPECITABINE UTILIZING MICROMIXING AND CAPECITABINE AMPHIPHILIC PROPERTIES” (Jingjie PTM BioLab (Hangzhou) Co., Ltd., priority 2017, published 2019):
# What was measured:
# [1] = Particle size by dynamic light scattering (DLS)
# [2] = unformulated CAP; cited from earlier work
smiles,measurement,setting,value
"CCCCCOC(=O)Nc1nc(=O)n([C@@H]2O[C@H](C)[C@@H](O)[C@H]2O)cc1F [CAP, N4-pentyloxycarbonyl-5-deoxy-5-fluoro-cytidine]",Size of the particles formed by CAP,"[1]; CAP in DI water, DLS",2-30 nm
same,Stability of CAP micelles,"[1]; high concentrations of CAP in DI water, size and correlation function fluctuate",not very stable
same,Time within which the drug by itself is eliminated from the body,[2],0.5 to 1 h
